≈ marks a conversion by molar mass, not a printed value.
Columns and labels:
[1] = test system: Campylobacter jejuni; assay: Antimicrobial activity against Campylobacter jejuni JL285 selected at 4 to 16 times MIC after 3 to 4 days by agar dilution method; format: functional
[2] = test system: Campylobacter jejuni; assay: Antimicrobial activity against Campylobacter jejuni JL291 harboring protein L22 with insertion of amino acid TSH at position 98 selected at 4 to 16 times MIC after 3 to 4 days by agar dilution method; format: functional
[3] = test system: Campylobacter jejuni; assay: Antimicrobial activity against Campylobacter jejuni DC34 harboring protein L4 G74D mutant by agar dilution method; format: functional
[4] = test system: Campylobacter jejuni; assay: Antimicrobial activity against Campylobacter jejuni DC6 infected in 3 days old chicken by agar dilution method; format: functional
[5] = test system: Campylobacter jejuni; assay: Antimicrobial activity against Campylobacter jejuni JL305 harboring protein L22 with insertion of amino acid TSH at position 98 selected at 4 to 16 times MIC after 3 to 4 days by agar dilution method; format: functional
[6] = test system: Campylobacter jejuni; assay: Antimicrobial activity against Campylobacter jejuni JL306 harboring protein L22 with insertion of amino acid TSH at position 98 selected at 4 to 16 times MIC after 3 to 4 days by agar dilution method; format: functional
[7] = test system: Campylobacter jejuni; assay: Antimicrobial activity against Campylobacter jejuni DC36 harboring protein L4 G74D mutant by agar dilution method; format: functional
[8] = test system: Campylobacter jejuni; assay: Antimicrobial activity against Campylobacter jejuni DC31 harboring 23S rRNA A2074G mutant by agar dilution method; format: functional
[9] = test system: Campylobacter jejuni; assay: Antimicrobial activity against Campylobacter jejuni DC25 harboring protein L4 G74D mutant by agar dilution method; format: functional
[10] = test system: Campylobacter jejuni; assay: Antimicrobial activity against Campylobacter jejuni DC14 harboring protein L4 G57D mutant by agar dilution method
[11] = test system: Campylobacter jejuni; assay: Antimicrobial activity against Campylobacter jejuni DC22 harboring protein L4 G74D mutant by agar dilution method; format: functional
[12] = test system: Campylobacter jejuni; assay: Antimicrobial activity against Campylobacter jejuni JL296 selected at 4 to 16 times MIC after 3 to 4 days by agar dilution method; format: functional
[13] = test system: Campylobacter jejuni; assay: Antimicrobial activity against Campylobacter jejuni JL278 selected at 4 to 16 times MIC after 3 to 4 days by agar dilution method; format: functional
[14] = test system: Campylobacter jejuni; assay: Antimicrobial activity against Campylobacter jejuni JL287 harboring 23S rRNA A2074C mutant selected at 4 to 16 times MIC after 3 to 4 days by agar dilution method; format: functional
[15] = test system: Campylobacter jejuni; assay: Antimicrobial activity against Campylobacter jejuni DC11 by agar dilution method; format: functional
[16] = test system: Campylobacter jejuni; assay: Antimicrobial activity against Campylobacter jejuni JL302 harboring protein L22 with insertion of amino acid TSH at position 98 selected at 4 to 16 times MIC after 3 to 4 days by agar dilution method; format: functional
[17] = test system: Campylobacter jejuni; assay: Antimicrobial activity against Campylobacter jejuni DC9 harboring 23S rRNA A2074G mutant by agar dilution method; format: functional
[18] = test system: Campylobacter jejuni; assay: Antimicrobial activity against Campylobacter jejuni JL295 selected at 2 ug/ml after 3 to 4 days by agar dilution method; format: functional
[19] = test system: Campylobacter jejuni; assay: Antimicrobial activity against Campylobacter jejuni DC13 harboring protein L4 G74D mutant by agar dilution method; format: functional
[20] = test system: Campylobacter jejuni; assay: Antimicrobial activity against Campylobacter jejuni DC37 harboring protein L4 G74D mutant by agar dilution method; format: functional
[21] = test system: Campylobacter jejuni; assay: Antimicrobial activity against Campylobacter jejuni DC32 harboring 23S rRNA A2074G mutant by agar dilution method; format: functional
[22] = test system: Campylobacter jejuni; assay: Antimicrobial activity against Campylobacter jejuni DC20 harboring protein L4 G74D mutant by agar dilution method; format: functional
[23] = test system: Campylobacter jejuni; assay: Antimicrobial activity against Campylobacter jejuni JL297 selected at 4 to 16 times MIC after 3 to 4 days by agar dilution method; format: functional
[24] = test system: Campylobacter jejuni; assay: Antimicrobial activity against Campylobacter jejuni DC8 harboring protein L4 G74D mutant by agar dilution method; format: functional
[25] = test system: Campylobacter jejuni; assay: Antimicrobial activity against Campylobacter jejuni DC38 harboring protein L4 G74D mutant by agar dilution method; format: functional
[26] = test system: Campylobacter jejuni; assay: Antimicrobial activity against Campylobacter jejuni JL279 selected at 4 to 16 times MIC after 3 to 4 days by agar dilution method; format: functional
[27] = test system: Campylobacter jejuni; assay: Antimicrobial activity against compound-resistant Campylobacter jejuni; format: functional
[28] = test system: Campylobacter jejuni; assay: Antimicrobial activity against Campylobacter jejuni DC35 harboring protein L4 G74D mutant by agar dilution method; format: functional
[29] = test system: Campylobacter jejuni; assay: Antimicrobial activity against Campylobacter jejuni DC3 harboring 23S rRNA A2074G mutant by agar dilution method; format: functional
[30] = test system: Campylobacter jejuni; assay: Antimicrobial activity against Campylobacter jejuni DC29 by agar dilution method; format: functional
[31] = test system: Campylobacter jejuni; assay: Antimicrobial activity against Campylobacter jejuni JL286 selected at 4 to 16 times MIC after 3 to 4 days by agar dilution method; format: functional
[32] = test system: Campylobacter jejuni; assay: Antimicrobial activity against Campylobacter jejuni DC26 harboring protein L4 G74D mutant by agar dilution method; format: functional
[33] = test system: Campylobacter jejuni; assay: Antimicrobial activity against Campylobacter jejuni DC2 infected in 15 days old chicken by agar dilution method in presence of feed with tylosin; format: functional
[34] = test system: Campylobacter jejuni; assay: Antimicrobial activity against Campylobacter jejuni JL300 harboring protein L22 with insertion of amino acid TSH at position 98 selected at 4 to 16 times MIC after 3 to 4 days by agar dilution method; format: functional
[35] = test system: Campylobacter jejuni; assay: Antimicrobial activity against Campylobacter jejuni JL288 harboring 23S rRNA A2074C mutant selected at 4 to 16 times MIC after 3 to 4 days by agar dilution method; format: functional
[36] = test system: Campylobacter jejuni; assay: Antimicrobial activity against Campylobacter jejuni DC39 harboring protein L4 G74D and G57V mutant by agar dilution method; format: functional
[37] = test system: Campylobacter jejuni; assay: Antimicrobial activity against Campylobacter jejuni DC33 harboring 23S rRNA A2074G mutant by agar dilution method; format: functional
[38] = test system: Campylobacter jejuni; assay: Antimicrobial activity against Campylobacter jejuni JL292 selected at 4 to 16 times MIC after 3 to 4 days by agar dilution method; format: functional

## CC[C@H]1OC(=O)[C@H](C)[C@@H](O[C@H]2C[C@@](C)(OC)[C@@H](O)[C@H](C)O2)[C@H](C)[C@@H](O[C@@H]2O[C@H](C)C[C@H](N(C)C)[C@H]2O)[C@](C)(O)C[C@@H](C)C(=O)[C@H](C)[C@@H](O)[C@]1(C)O [ERYTHROMYCIN]
[1]
  MIC: 128 µg/mL (≈ 174 µM)
[2]
  MIC: 32 µg/mL (≈ 43.6 µM)
[3]
  MIC: 128 µg/mL (≈ 174 µM)
[4]
  MIC: > 512 µg/mL
[5]
  MIC: 256 µg/mL (≈ 349 µM)
[6]
  MIC: 64 µg/mL (≈ 87.2 µM)
[7]
  MIC: 128 µg/mL (≈ 174 µM)
[8]
  MIC: > 512 µg/mL
[9]
  MIC: 64 µg/mL (≈ 87.2 µM)
[10]
  MIC: 32 µg/mL (≈ 43.6 µM)
[11]
  MIC: 32 µg/mL (≈ 43.6 µM)
[12]
  MIC: 8 µg/mL (≈ 10.9 µM)
[13]
  MIC: 8 µg/mL (≈ 10.9 µM)
[14]
  MIC: > 512 µg/mL
[15]
  MIC: 64 µg/mL (≈ 87.2 µM)
[16]
  MIC: 512 µg/mL (≈ 698 µM)
[17]
  MIC: > 512 µg/mL
[18]
  MIC: 8 µg/mL (≈ 10.9 µM)
[19]
  MIC: 32 µg/mL (≈ 43.6 µM)
[20]
  MIC: 128 µg/mL (≈ 174 µM)
[21]
  MIC: > 512 µg/mL
[22]
  MIC: 16 µg/mL (≈ 21.8 µM)
[23]
  MIC: 8 µg/mL (≈ 10.9 µM)
[24]
  MIC: 32 µg/mL (≈ 43.6 µM)
[25]
  MIC: 128 µg/mL (≈ 174 µM)
[26]
  MIC: 8 µg/mL (≈ 10.9 µM)
[27]
  MIC: 8 µg/mL (≈ 10.9 µM)
[28]
  MIC: 128 µg/mL (≈ 174 µM)
[29]
  MIC: > 512 µg/mL
[30]
  MIC: 4 µg/mL (≈ 5.45 µM)
[31]
  MIC: 128 µg/mL (≈ 174 µM)
[32]
  MIC: 64 µg/mL (≈ 87.2 µM)
[33]
  MIC: 32 µg/mL
[34]
  MIC: 128 µg/mL (≈ 174 µM)
[35]
  MIC: > 512 µg/mL
[36]
  MIC: 256 µg/mL (≈ 349 µM)
[37]
  MIC: > 512 µg/mL
[38]
  MIC: 8 µg/mL (≈ 10.9 µM)

Reference: ChEMBL document CHEMBL1671637, “Development, stability, and molecular mechanisms of macrolide resistance in Campylobacter jejuni” (2008)
